Assay results as given in patent US12622886B2, “Compositions comprising amino acids for prevention and/or treatment of cancer” (Professional Dietetics S.p.A., priority 2020, dated 2026).

Tested on: MCF7 breast cancer cells
Experiment: MCF7 proliferation (acid phosphatase assay and Trypan blue exclusion)
Assay type: cell-based, human
Details: 1% α5 for 48 h and 1 μM DOX for 16 h
Procedure: MCF-7 cells were cultured in DMEM as above and treated with 1% α5 composition for 48 h and 1 μM doxorubicin (DOX; Sigma-Aldrich, Milan, Italy) for 16 h (FIG. 7).
To quantify MCF7 cell growth, acid phosphatase assay was used as described [Yang T T et al. 1996 Anal Biochem. 241(1):103-8]. Briefly, MCF7 cells were placed in 96-well plates at 5,000 to 20,000 cells per well density and treated with 1% α5 (for 48 h) and 1 μM DOX (for 16 h). Culture medium was removed and each well washed once with phosphate-buffered saline (PBS, pH 7.2), and added with 100 μl buffer containing 0.1 M sodium acetate (pH 5.0), 0.1% Triton X-100, and 5 mM p-nitrophenyl phosphate (pNPP). Then, plates were placed in a 37° C. incubator for 2 h. The reaction was stopped with the addition of 10 μl 1 N NaOH, and color development was assessed at 405 nm. Non-enzymatic pNPP hydrolysis was measured in wells without cells.

## COc1cccc2c1C(=O)c1c(O)c3c(c(O)c1C2=O)C[C@@](O)(C(=O)CO)C[C@@H]3O[C@H]1C[C@H](N)[C@H](O)[C@H](C)O1 [DOX, doxorubicin]
  anti-proliferative effect of DOX together with the α5 composition: completely unaffected
